Literature values, collected in patent publication US10633688B2, “Systems and methods for predicting response to minoxidil for the treatment of androgenetic alopecia” (Follea International, priority 2010, dated 2020).

Key:
SULT1A1 = biological target: T1, SULT1A1 (Homo sapiens, UniProt P50225)
T1 construct: Plucked hairs were collected from the border between bald and non-bald scalp and inspected visually for an intact bulb; from tissue; host or cells: plucked anagen scalp hair (hair bulb / follicle) of AGA patients
T1 sequence (P50225 whole entry): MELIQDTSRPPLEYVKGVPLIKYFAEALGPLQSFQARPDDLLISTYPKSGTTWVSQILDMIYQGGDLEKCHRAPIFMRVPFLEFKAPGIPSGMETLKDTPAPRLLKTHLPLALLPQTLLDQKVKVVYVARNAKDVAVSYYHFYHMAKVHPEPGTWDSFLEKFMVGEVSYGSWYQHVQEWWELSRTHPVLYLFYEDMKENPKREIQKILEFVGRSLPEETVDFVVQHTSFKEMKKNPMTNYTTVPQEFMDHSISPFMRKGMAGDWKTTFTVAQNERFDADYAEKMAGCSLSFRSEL

[1] = system: female androgenetic alopecia; conditions: females

Structure (SMILES): O=C(O)c1ccccc1O [salicylic acid]
- effect on SULT1A1 sulfation of minoxidil (SULT1A1): lower SULT1A1 sulfation of minoxidil by competitive inhibition

Structure (SMILES): CC(C)(C)NC(=O)[C@H]1CC[C@H]2[C@@H]3CC[C@H]4NC(=O)C=C[C@]4(C)[C@H]3CC[C@]12C [finasteride]
- effectiveness in the treatment of female androgenetic alopecia [1]: failed to show the effectiveness
